Key:
[1] = biological target: GDP-bound HRAS wild-type protein (Homo sapiens, UniProt P01112); test: Binding to HRAS by surface plasmon resonance (SPR), Single Cycle Kinetics; details: KD ratio HRAS/KRAS, SPR
[2] = biological target: GDP-bound NRAS wild-type protein (Homo sapiens, UniProt P01111); test: Binding to NRAS by surface plasmon resonance (SPR), Single Cycle Kinetics; details: KD ratio NRAS/KRAS, SPR
Chain of GDP-bound NRAS wild-type protein (P01111 whole entry): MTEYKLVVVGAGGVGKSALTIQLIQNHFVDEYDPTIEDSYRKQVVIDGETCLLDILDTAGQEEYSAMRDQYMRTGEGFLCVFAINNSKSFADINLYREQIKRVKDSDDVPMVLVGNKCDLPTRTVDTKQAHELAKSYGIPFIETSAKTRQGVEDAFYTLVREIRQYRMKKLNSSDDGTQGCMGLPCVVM

Chain of GDP-bound HRAS wild-type protein (P01112 whole entry): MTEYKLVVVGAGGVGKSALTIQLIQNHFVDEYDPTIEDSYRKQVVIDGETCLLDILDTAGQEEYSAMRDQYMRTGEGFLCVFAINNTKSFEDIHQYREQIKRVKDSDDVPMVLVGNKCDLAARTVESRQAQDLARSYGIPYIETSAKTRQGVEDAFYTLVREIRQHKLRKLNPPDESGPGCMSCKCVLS

Row | SMILES | HRAS/KRAS (ratio of KD value with respect to GDP-bound HRAS wild-type protein to KD value with respect to KRAS) [1] | NRAS/KRAS (ratio of KD value with respect to GDP-bound NRAS wild-type protein to KD value with respect to KRAS) [2]
1 | CC[C@H](C)[C@@H]1NC(=O)[C@H](CC(C)C)N(C)C(=O)C[C@@H](C(=O)N2CCOCC2)N(C)C(=O)[C@H](C2CCCC2)N(C)C(=O)C2(CCCC2)NC(=O)[C@@H]2CCCN2C(=O)[C@H](CCc2ccc(C(F)(F)F)c(Cl)c2)NC(=O)CN(C)C(=O)[C@H](Cc2ccc(Cl)cc2)N2CCCCC[C@@H](C2=O)N(C)C(=O)CN(C)C1=O [PP0613] | B (a compound having 3 or more and less than 10 is denoted as B) | B (a compound having 3 or more and less than 10 is denoted as B)
2 | CC[C@H](C)[C@@H]1NC(=O)[C@H](CC(C)C)N(C)C(=O)C[C@@H](C(=O)N2CCOCC2)N(C)C(=O)[C@H](C2CCCC2)N(C)C(=O)C2(CCCC2)NC(=O)[C@@H]2CCCN2C(=O)[C@H](CCc2ccc(C(F)(F)F)c(Cl)c2)NC(=O)CN(C)C(=O)[C@H](Cc2ccc(OC)cc2)N2CCCCC[C@@H](C2=O)N(C)C(=O)CN(C)C1=O [PP0614] | B (a compound having 3 or more and less than 10 is denoted as B) | B (a compound having 3 or more and less than 10 is denoted as B)
3 | CC[C@H](C)[C@@H]1NC(=O)[C@H](CC(C)C)N(C)C(=O)C[C@@H](C(=O)N2CCOCC2)N(C)C(=O)[C@H](C2CCCC2)N(C)C(=O)C2(CCCC2)NC(=O)[C@@H]2CCCN2C(=O)[C@H](CCc2ccc(C(F)(F)F)c(Cl)c2)NC(=O)CN(C)C(=O)[C@H](Cc2ccc(OC(F)(F)F)cc2)N2CCCCC[C@@H](C2=O)N(C)C(=O)CN(C)C1=O [PP0615] | B (a compound having 3 or more and less than 10 is denoted as B) | B (a compound having 3 or more and less than 10 is denoted as B)
4 | CC[C@H](C)[C@@H]1NC(=O)[C@H](CC(C)C)N(C)C(=O)C[C@@H](C(=O)N(C)C)N(C)C(=O)[C@H](C2CCCC2)N(C)C(=O)C2(CCCC2)NC(=O)[C@@H]2CCCN2C(=O)[C@H](CCc2ccc(C(F)(F)F)c(Cl)c2)NC(=O)CN(C)C(=O)[C@H](Cc2ccc(C)cc2)N2CC=C(C)C[C@@H](C2=O)N(C)C(=O)CN(C)C1=O [PP0620] | C (A compound having a KD ratio of 0.1 or more and less than 3 is denoted as C) | C (A compound having a KD ratio of 0.1 or more and less than 3 is denoted as C)
5 | CC[C@H](C)[C@@H]1NC(=O)[C@H](CC(C)C)N(C)C(=O)C[C@@H](C(=O)N(C)C)N(C)C(=O)[C@H](C2CCCC2)N(C)C(=O)C2(CCCC2)NC(=O)[C@@H]2CCCN2C(=O)[C@H](CCc2ccc(C(F)(F)F)c(Cl)c2)NC(=O)CN(C)C(=O)[C@H](Cc2ccc(C(F)(F)F)cc2)N2CC=CCOC[C@H](C2=O)N(C)C(=O)CN(C)C1=O [PP0628] | C (A compound having a KD ratio of 0.1 or more and less than 3 is denoted as C) | C (A compound having a KD ratio of 0.1 or more and less than 3 is denoted as C)
6 | CC[C@H](C)[C@@H]1NC(=O)[C@H](CC(C)C)N(C)C(=O)C[C@@H](C(=O)N(C)C)N(C)C(=O)[C@H](C2CCCC2)N(C)C(=O)C2(CCCC2)NC(=O)[C@@H]2CCCN2C(=O)[C@H](CCc2ccc(C(F)(F)F)c(Cl)c2)NC(=O)CN(C)C(=O)[C@H](Cc2ccc(C)cc2)N2CC=CCOC[C@H](C2=O)N(C)C(=O)CN(C)C1=O [PP0629] | C (A compound having a KD ratio of 0.1 or more and less than 3 is denoted as C) | B (a compound having 3 or more and less than 10 is denoted as B)
7 | CCO[C@@H]1C[C@H]2C(=O)NC3(CCC3)C(=O)N(C)[C@@H](C3CCCC3)C(=O)N(CC)[C@H](C(=O)N(C)C)CC(=O)N(C)[C@@H](CC)C(=O)N[C@@H]([C@@H](C)CC)C(=O)N(C)CC(=O)N(C)[C@H]3CCCCCN(C3=O)[C@@H](Cc3ccc(C(F)(F)F)cc3)C(=O)N(C)CC(=O)N[C@@H](CCc3cc(F)c(C(F)(F)F)c(F)c3)C(=O)N2C1 [PP0633] | B (a compound having 3 or more and less than 10 is denoted as B) | B (a compound having 3 or more and less than 10 is denoted as B)
8 | CCO[C@@H]1C[C@H]2C(=O)NC3(CCC3)C(=O)N(C)[C@@H](C3CCCC3)C(=O)N(CCC3CCC3)[C@H](C(=O)N(C)C)CC(=O)N(C)[C@@H](CC)C(=O)N[C@@H]([C@@H](C)CC)C(=O)N(C)CC(=O)N(C)[C@H]3CCCCCN(C3=O)[C@@H](Cc3ccc(C(F)(F)F)cc3)C(=O)N(C)CC(=O)N[C@@H](CCc3cc(F)c(C(F)(F)F)c(F)c3)C(=O)N2C1 [PP0635] | B (a compound having 3 or more and less than 10 is denoted as B) | B (a compound having 3 or more and less than 10 is denoted as B)
9 | CCO[C@@H]1C[C@H]2C(=O)NC3(CCC3)C(=O)N(C)[C@@H](C3CCCC3)C(=O)N(CCC3CCCC3)[C@H](C(=O)N(C)C)CC(=O)N(C)[C@@H](CC)C(=O)N[C@@H]([C@@H](C)CC)C(=O)N(C)CC(=O)N(C)[C@H]3CCCCCN(C3=O)[C@@H](Cc3ccc(C(F)(F)F)cc3)C(=O)N(C)CC(=O)N[C@@H](CCc3cc(F)c(C(F)(F)F)c(F)c3)C(=O)N2C1 [PP0636] | A (a compound having 10 or more and less than 20 is denoted as A) | A (a compound having 10 or more and less than 20 is denoted as A)
10 | CCO[C@@H]1C[C@H]2C(=O)NC3(CCC3)C(=O)N(C)[C@@H](C3CCCC3)C(=O)N(CCc3ccccc3)[C@H](C(=O)N(C)C)CC(=O)N(C)[C@@H](CC)C(=O)N[C@@H]([C@@H](C)CC)C(=O)N(C)CC(=O)N(C)[C@H]3CCCCCN(C3=O)[C@@H](Cc3ccc(C(F)(F)F)cc3)C(=O)N(C)CC(=O)N[C@@H](CCc3cc(F)c(C(F)(F)F)c(F)c3)C(=O)N2C1 [PP0637] | B (a compound having 3 or more and less than 10 is denoted as B) | B (a compound having 3 or more and less than 10 is denoted as B)
11 | CCO[C@@H]1C[C@H]2C(=O)NC3(CCC3)C(=O)N(C)[C@@H](C3CCCC3)C(=O)N(CC)[C@H](C(=O)N3CCOCC3)CC(=O)N(C)[C@@H](CC(C)C)C(=O)N[C@@H]([C@@H](C)CC)C(=O)N(C)CC(=O)N(C)[C@H]3CCCCCN(C3=O)[C@@H](Cc3ccc(C(F)(F)F)cc3)C(=O)N(C)CC(=O)N[C@@H](CCc3cc(F)c(C(F)(F)F)c(F)c3)C(=O)N2C1 [PP0638] | B (a compound having 3 or more and less than 10 is denoted as B) | B (a compound having 3 or more and less than 10 is denoted as B)
12 | CCCN1C(=O)[C@H](C2CCCC2)N(C)C(=O)C2(CCC2)NC(=O)[C@@H]2C[C@@H](OCC)CN2C(=O)[C@H](CCc2cc(F)c(C(F)(F)F)c(F)c2)NC(=O)CN(C)C(=O)[C@H](Cc2ccc(C(F)(F)F)cc2)N2CCCCC[C@@H](C2=O)N(C)C(=O)CN(C)C(=O)[C@H]([C@@H](C)CC)NC(=O)[C@H](CC(C)C)N(C)C(=O)C[C@H]1C(=O)N1CCOCC1 [PP0639] | B (a compound having 3 or more and less than 10 is denoted as B) | B (a compound having 3 or more and less than 10 is denoted as B)
13 | CCO[C@@H]1C[C@H]2C(=O)NC3(CCC3)C(=O)N(C)[C@@H](C3CCCC3)C(=O)N(CCC3CCC3)[C@H](C(=O)N3CCOCC3)CC(=O)N(C)[C@@H](CC(C)C)C(=O)N[C@@H]([C@@H](C)CC)C(=O)N(C)CC(=O)N(C)[C@H]3CCCCCN(C3=O)[C@@H](Cc3ccc(C(F)(F)F)cc3)C(=O)N(C)CC(=O)N[C@@H](CCc3cc(F)c(C(F)(F)F)c(F)c3)C(=O)N2C1 [PP0640] | B (a compound having 3 or more and less than 10 is denoted as B) | B (a compound having 3 or more and less than 10 is denoted as B)
14 | CCO[C@@H]1C[C@H]2C(=O)NC3(CCC3)C(=O)N(C)[C@@H](C3CCCC3)C(=O)N(CCC3CCCC3)[C@H](C(=O)N3CCOCC3)CC(=O)N(C)[C@@H](CC(C)C)C(=O)N[C@@H]([C@@H](C)CC)C(=O)N(C)CC(=O)N(C)[C@H]3CCCCCN(C3=O)[C@@H](Cc3ccc(C(F)(F)F)cc3)C(=O)N(C)CC(=O)N[C@@H](CCc3cc(F)c(C(F)(F)F)c(F)c3)C(=O)N2C1 [PP0641] | A (a compound having 10 or more and less than 20 is denoted as A) | A (a compound having 10 or more and less than 20 is denoted as A)
15 | CCO[C@@H]1C[C@H]2C(=O)NC3(CCC3)C(=O)N(C)[C@@H](C3CCCC3)C(=O)N(CCc3ccccc3)[C@H](C(=O)N3CCOCC3)CC(=O)N(C)[C@@H](CC(C)C)C(=O)N[C@@H]([C@@H](C)CC)C(=O)N(C)CC(=O)N(C)[C@H]3CCCCCN(C3=O)[C@@H](Cc3ccc(C(F)(F)F)cc3)C(=O)N(C)CC(=O)N[C@@H](CCc3cc(F)c(C(F)(F)F)c(F)c3)C(=O)N2C1 [PP0642] | B (a compound having 3 or more and less than 10 is denoted as B) | B (a compound having 3 or more and less than 10 is denoted as B)
